Assay results: patent publication US8071119B2, “Controlled release implantable dispensing device and method” (Sustained Nano Systems LLC, priority 2007, dated 2011)
Like-named read-outs stand apart in the source and are kept apart here.

What was measured:
[1] = longer term subconjunctival implantation of pellets in rabbit ocular tissues (HPLC tissue levels, histology); format: in vivo; conditions: other: subconjunctival implantation of a pellet, 13 weeks after implantation in right eye, 301,568 psi pellet
Procedure: A study was performed to assess the effects of longer term implantation of cylindrical pellets compressed at 301,568 psi, measuring 5 mm length×3 mm diameter, in rabbit ocular tissues. A new 3-mm diameter mold (prepared and adapted to fit/interchange with the supporting hardware of the 7.87 mm diameter mold) was utilized to prepare the smaller pellets required for the rabbit eye. Due to dimensional considerations and the need to reconcile with the pressure applied for preparing the pellets and the mechanical tolerance of the mold, the incremental pressurization approach, described above was utilized, an initial pressure of 1000 lb was applied; thereafter, ˜500 lb of additional pressure was applied approximately every 5 minutes until it reached about 300,000 psi range. The height of the pellets (cylinders) produced were about 5 mm. The pressure noted was 301,568 psi. Similar to the pig model as described above, the pellets were implanted beneath the conjunctiva in the superotemporal quadrant of the right eyes. At stipulated time-points, the rabbits were euthanized to harvest the ocular tissues. Accordingly, the implant sites were dissected out and the rest of the tissues were further separated into: sclera/conjunctiva, cornea and lens. FIG. 7 depicts the histology (cryosectioned, H&E stained) of an implant site 9 weeks post-op.
The dexamethasone levels in rabbit ocular tissue is determined after 13 weeks and is reported in nanograms of dexamethasone per mg of tissue in Table 1. The sclera/conjunctiva, cornea and lens are recovered, processed, and extracted. Dexamethasone levels are determined by HPLC assay. Table 1 reports the dexamethasone recovered from the rabbit ocular tissues after 13 weeks of implantation, which is the longest duration for this study series.

[2] = dexamethasone levels after subconjunctival implantation in pig eyes; format: in vivo; conditions: pigs, after subconjunctival implantation of the 211,685 psi disc
Procedure: A cylindrical shaped dosage form is made using dexamethasone and the polymer system was prepared as described above. The dosage form measures 7.87 mm in diameter, has a thickness of 1 mm, a weight of 60 mg and a drug loading of 6.5%. […] The dosage form is placed beneath the conjunctiva in the super temporal quadrant of the eyes of five pigs. […]

With `C[C@@H]1C[C@H]2[C@@H]3CCC4=CC(=O)C=C[C@]4(C)[C@@]3(F)[C@@H](O)C[C@]2(C)[C@@]1(O)C(=O)CO` [dexamethasone] the concentration at 13 weeks ([1]; left lens (eye without implant), read-out: dexamethasone level in Left Lens) was 18300 ng/g, the concentration at 13 weeks ([1]; left sclera/conjunctiva (eye without implant), read-out: dexamethasone level in Left Sclera/Conjunctiva) was 20300 ng/g and the concentration at 13 weeks ([1]; right cornea (implanted eye), read-out: dexamethasone level in Right Cornea) was 40400 ng/g. For the same compound, the concentration at 13 weeks ([1]; right lens (implanted eye), read-out: dexamethasone level in Right Lens) was 78100 ng/g, the concentration at 13 weeks ([1]; right sclera/conjunctiva (implanted eye), read-out: dexamethasone level in Right Sclera/Conjunctiva) was 415000 ng/g and the dexamethasone in plasma [2] was “no detectable dexamethasone”.
